Measured values as given in US11944623B2, “Modulators of Kv3 channels to treat pain” (Autifony Therapeutics Limited, priority 2015, dated 2024).

target: T1, Human Nav1.7 channels (Homo sapiens, UniProt Q15858); test: Nav1.7 QPatch assay; assay type: cell-based; settings: 10 µM concentration (N=3)
T1 construct: expressed in transfected cells
Procedure: Human Nav1.7 channels were stably expressed in a HEK293 cell line. Electrophysiological recordings were made at room temperature using an automated patch clamp platform (QPatch, Sophion Biosciences).
The QPatch assay was carried out at room temperature using the QPatch platform (Sophion). On the day of the experiment cells were cultured according to standard cell preparation for QPatch. Internal and external physiological solutions were freshly prepared prior to the assay. The standard extracellular solution contained 145 mM NaCl, 4 mM KCl, 2 mM CaCl2, 2 mM MgCl2, 10 mM HEPES and 10 mM glucose; the pH was adjusted to 7.4 with NaOH, and the osmolarity measured as 314mOsm/L. The standard intracellular solution contained 140 mM CsF, 10 mM NaCl, 5 mM CsOH, 1 mM EGTA, 10 mM HEPES; the pH was adjusted to 7.25 with CsOH, and the osmolarity measured as 293mOsm/L.
A series of 40 voltage pulses (from −120 mV to 0 mV, 2.4 ms long at 117 Hz) were applied every 60 s in control (twice), compound (five times), standard blocker (twice) and washout (twice). The % inhibition values were calculated by normalising the data relative to the 1st pulse (P1) and by calculating the ratio between the 40th pulse versus the 1st pulse (P40/1). Series resistance and quality of seals were monitored during the experiments. Sophion QPatch Assay Software 5.0 was used to analyse and plot all the graphs. 10 μM of the test compound was applied followed by 1 μM TTX (standard blocker), followed by saline (washout). Compounds were diluted in physiological solutions at the required concentration with a maximum of 0.1% of DMSO.

T1 sequence (Q15858 whole entry): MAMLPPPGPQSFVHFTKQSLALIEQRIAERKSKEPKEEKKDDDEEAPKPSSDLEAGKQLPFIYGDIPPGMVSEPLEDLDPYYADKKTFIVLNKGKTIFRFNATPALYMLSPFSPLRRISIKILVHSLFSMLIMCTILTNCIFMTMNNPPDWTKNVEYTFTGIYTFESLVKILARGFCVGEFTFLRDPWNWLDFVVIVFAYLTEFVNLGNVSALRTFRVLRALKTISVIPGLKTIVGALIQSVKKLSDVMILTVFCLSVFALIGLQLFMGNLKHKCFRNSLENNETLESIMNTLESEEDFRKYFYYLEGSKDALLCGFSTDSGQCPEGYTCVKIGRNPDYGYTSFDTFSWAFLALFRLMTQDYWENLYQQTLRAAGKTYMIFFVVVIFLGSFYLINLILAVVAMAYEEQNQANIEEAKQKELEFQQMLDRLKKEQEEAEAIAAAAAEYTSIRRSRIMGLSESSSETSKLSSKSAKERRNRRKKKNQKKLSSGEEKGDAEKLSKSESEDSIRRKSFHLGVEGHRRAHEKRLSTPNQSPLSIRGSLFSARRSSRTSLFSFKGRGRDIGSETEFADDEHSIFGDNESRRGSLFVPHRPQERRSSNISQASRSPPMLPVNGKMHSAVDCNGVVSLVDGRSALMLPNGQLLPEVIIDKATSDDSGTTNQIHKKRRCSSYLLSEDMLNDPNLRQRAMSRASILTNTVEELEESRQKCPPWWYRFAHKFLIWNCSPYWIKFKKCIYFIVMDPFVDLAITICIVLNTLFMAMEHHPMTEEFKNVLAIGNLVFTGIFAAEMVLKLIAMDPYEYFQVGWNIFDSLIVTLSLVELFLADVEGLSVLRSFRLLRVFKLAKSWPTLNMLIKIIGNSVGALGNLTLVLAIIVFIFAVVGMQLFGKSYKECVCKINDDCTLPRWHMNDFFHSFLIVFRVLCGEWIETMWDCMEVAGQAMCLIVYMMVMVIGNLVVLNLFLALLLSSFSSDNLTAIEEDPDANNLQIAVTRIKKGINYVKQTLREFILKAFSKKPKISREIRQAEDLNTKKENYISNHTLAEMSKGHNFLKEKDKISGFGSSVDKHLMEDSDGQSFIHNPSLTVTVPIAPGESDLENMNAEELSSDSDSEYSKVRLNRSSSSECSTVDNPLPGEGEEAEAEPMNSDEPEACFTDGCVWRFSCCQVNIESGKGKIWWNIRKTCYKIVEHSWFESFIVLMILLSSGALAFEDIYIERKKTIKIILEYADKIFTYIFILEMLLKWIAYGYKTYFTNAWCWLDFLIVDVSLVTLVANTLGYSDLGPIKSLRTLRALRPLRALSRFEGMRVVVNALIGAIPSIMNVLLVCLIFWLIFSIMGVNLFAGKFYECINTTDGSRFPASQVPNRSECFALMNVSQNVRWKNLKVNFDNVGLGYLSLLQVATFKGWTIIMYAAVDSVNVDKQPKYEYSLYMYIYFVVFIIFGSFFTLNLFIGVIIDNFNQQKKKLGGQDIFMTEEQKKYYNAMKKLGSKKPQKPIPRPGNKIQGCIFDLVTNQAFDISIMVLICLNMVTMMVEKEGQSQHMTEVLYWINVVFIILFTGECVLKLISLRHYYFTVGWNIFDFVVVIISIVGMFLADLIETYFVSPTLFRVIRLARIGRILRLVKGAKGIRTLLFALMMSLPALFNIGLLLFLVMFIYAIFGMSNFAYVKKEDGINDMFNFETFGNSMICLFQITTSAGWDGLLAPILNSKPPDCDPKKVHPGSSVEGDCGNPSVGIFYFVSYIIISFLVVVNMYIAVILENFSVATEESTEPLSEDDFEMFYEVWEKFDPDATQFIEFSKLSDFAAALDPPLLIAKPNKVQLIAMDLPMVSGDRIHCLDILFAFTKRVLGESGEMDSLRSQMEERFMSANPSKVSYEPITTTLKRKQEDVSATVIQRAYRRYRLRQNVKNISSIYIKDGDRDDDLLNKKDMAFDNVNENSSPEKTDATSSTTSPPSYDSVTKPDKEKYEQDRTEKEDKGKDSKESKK

Row | effect on Nav1.7-mediated currents | Structure (SMILES)
1 | No significant effect | Cc1ccc(Oc2ccc(-n3c(C)n[nH]c3=O)cn2)c2c1OCC21CC1 [Compound 3, 5-methyl-4-{6-[(7-methylspiro[1-benzofuran-3,1′-cyclopropan]-4-yl)oxy]pyridin-3-yl}-2,4-dihydro-3H-1,2,4-triazol-3-one]
2 | No significant effect | Cc1ccc(Oc2ncc(N3C(=O)NC(C)(C)C3=O)cn2)c2c1OCC21CC1 [Compound 1, 5,5-dimethyl-3-[2-(7-methylspiro[2H-benzofuran-3,1′-cyclopropane]-4-yl)oxypyrimidin-5-yl]imidazolidine-2,4-dione]
3 | No significant effect | CC[C@@]1(C)NC(=O)N(c2cnc(Oc3ccc(C)c(OC(F)(F)F)c3)nc2)C1=O [Compound 2, (5R)-5-ethyl-5-methyl-3-[2-({4-methyl-3-[(trifluoromethyl)oxy]phenyl}oxy)-5-pyrimidinyl]-2,4-imidazolidinedione]
